Assay [1] concerns stratum corneum (skin cell turnover). The assay can be described thus: In vivo inhibition of UV-induced skin cell renewal, dansyl chloride staining technique. Details: species or system human. Here is the method: The dansyl chloride staining technique is used to measure rates of skin cell turnover, under normal conditions and under conditions of exposure to ultraviolet light with and without protection from various test materials.
Summarizing known procedural methods, the stratum corneum is stained with fluorescent dansyl chloride by applying semi-occlusive patches of 5% dansyl chloride milled into petrolatum for 24 hours. After assuring that the stain is completely taken up by the stratum corneum layers by viewing under a quartz mineral lamp, subjects are instructed to apply water or the test product. Skin sites are treated with the various doses of UV indicated in MED in Table 6A, below, 3 days prior to and 1 day after patching with dansyl chloride. Visual inspection of the sites under UV lamp is made until the stain disappears reflecting the time required for complete turnover of the full thickness stratum corneum. Changes in cell renewal due to test material effects and UV exposure can be expressed as a percentage change compared to water-treated or untreated controls.

Assay [2] deals with Fibroblasts. The assay can be described thus: UV cytotoxicity assay, cell count in hemocytometer. The class given is cell-based. The protocol: Fibroblasts, grown in Dulbecco medium (DM) supplemented with fetal calf serum are plated in 24 well plates at a density of 20,000 cells per well. Twelve hours after plating, fresh DM with fetal calf serum is added. After an additional 12 hours various test materials as set forth in Table 3, are added to the wells. Six, twelve and twenty four hours later, cultures are exposed to UV at varying low and high doses. The low dose is chosen to stimulate growth and cause a hyper-proliferative response, while the higher dose is chosen to induce cytotoxic effects. After 72 and 144 hours, cells are trypsinized, and counted in a hemocytometer chamber. The cytotoxicity test results using the indicated quantities of the test materials to inhibit free radical toxicity, are set forth in Table 3, below. The control is an aliquot of water.

Assay [3] relates to fibroblasts and keratinocytes. The assay can be described thus: Free radical (ROS, xanthine oxidase/hypoxanthine) cytotoxicity inhibition, MTT dye method. Type of assay: cell-based. Particulars: about 24 hours. An excerpt:
Xanthine oxidase and hypoxanthine, referenced “XO” in Table 2, are employed together as a system to generate free radicals such as hydrogen peroxide, the hydroxyl radical and superoxide, as is known in the art. The free radical products of xanthine oxidase and hypoxanthine referenced “ROS” hereinafter, provide a test system which can be used to model the ability of test materials to protect biological organisms against the action of free radicals.
Test 2 determines the ability of the group of test materials employed in Test 1 to reduce ROS cytotoxicity to fibroblasts and keratinocytes. Cells are seeded in 96-well plates and grown for two days. They are then exposed for about 24 hours to hypoxanthine at 100 □ g/ml and to various concentrations of xanthine oxidase, ranging, as shown in Table 2's column headers, from 2 mU/ml to 40 mU/ml. Fresh culture medium is added after exposure to ROS and cell death is assessed by the conventional MTT dye method wherein light absorbence at 570 nm is measured. Only living cells take up the MTT dye which absorbs at the measurement wavelength. The cytotoxicity test results, using the quantity of the test materials listed to inhibit free radical toxicity, are set forth in Table 2, below. The control is an aliquot of water.
(Tetrazolium dyes change colour on reduction, which living cells bring about.)

Assay [4] has as its system Cytochrome C. The assay can be described thus: In vitro cytochrome C oxidation-reduction assay in the presence of isolated neutrophils (antioxidant activity). The class given is biochemical. The source says: An in vitro cytochrome C oxidation-reduction assay conducted in the presence of isolated neutrophils is used to assess the antioxidant activity of a group of test materials comprising aqueous extracts of the inventive mixed tea blend prepared by the method of Example 3 having the concentrations indicated in Table 1, below, and known antioxidant materials, namely green tea extract, white tea extract, grape polyphenols and vitamin E, as controls. Reduction of cytochrome C by free radicals causes an increase in light absorbence at 550 nm. Cytochrome C is an ubiquitous iron-containing cellular respiratory enzyme. Singlet oxygen prevents free radical reduction and the consequent increase in light absorbance. The oxidation-reduction assay determines the ability of the test materials to control the activity of chemically generated singlet oxygen, permitting the reductive free radicals to induce increased light absorbence, which is measured.
The assay system employed, determination of the impact of singlet oxygen on a biological entity, cytochrome C, is believed to be a useful model of in vivo activity. However, the invention is not dependent upon this or any other theory.

For the substance vitamin E, the “Hyperproliferative Effect” value in assay [1] (decrease in turnover time with UV versus no UV) stood at 41.9%. Further, in assay [1] (time for dansyl chloride stain to disappear (Table 5 gives turnover in days), no UV), the “Skin cell turnover, No UV Exposure” value was determined as 18.1. Moreover, the “Skin cell turnover, UV Exposure” value in assay [1] (time for dansyl chloride stain to disappear (Table 5 gives turnover in days), with UV exposure) came out at 10.5. The “Protection against UV-induced hyperproliferation (in words)” value in assay [1] (topical, UV exposure) was “no protection”. In addition, the “Cell Survival after Exposure to UV” value in assay [2] (UV 1 mJ/cm2) was found to be 65%; in assay [2] (UV 2 mJ/cm2), 42%; in assay [2] (UV 5 mJ/cm2) it was 35%; in assay [2] (UV 10 mJ/cm2), 20%. Besides, the “Cell Survival after Exposure to ROS Free Radicals” value is on record as 89% in assay [3] (XO 2 mU, hypoxanthine […]); 47% in assay [3] (XO 10 mU, hypoxanthine 100 µg/ml); 25% in assay [3] (XO 20 mU, hypoxanthine 100 µg/ml); 13% in assay [3] (XO 40 MU, hypoxanthine […]). The “Inhibition of Cytochrome C Oxidation” value in assay [4] (test material 0.1 μg/ml) is 21%; in assay [4] (test material 1.0 μg/ml), 15%; in assay [4] (test material 10 μg/ml), 11%; in assay [4] (test material 25 μg/ml), 14%.
